The text below walks through data of US11484539B2, “Compounds and their uses for alleviating menopause-associated symptoms” (Estetra SPRL, priority 2018, dated 2022).

SMILES strings stand for the structures.

For the series, the system named is post-menopausal women. Put plainly: Adverse Events (AEs, TEAEs). The class given is in vivo. The source says:
This is confirmed by the following statistical analysis. Using a Poisson regression model with a random effect for the patient and treatment group as a covariate to model the count of TEAEs in the different treatment groups, it can be shown that there is no statistical difference between the treatment groups (p value of 0.099). Second, a chi-square test was used to assess if the prevalence of patients reporting TEAEs in each treatment group was similar. No statistical difference was found between the treatment groups (p value of 0.575).

As to `C[C@]12CC[C@@H]3c4ccc(O)cc4CC[C@H]3[C@@H]1[C@@H](O)[C@@H](O)[C@@H]2O` [E4, 1,3,5 (10)-estratrien-3,15alpha,16alpha,17beta-tetrol], the “Count of Treatment Emergent AEs (TEAEs)” value is, setting by setting: (2.5 mg) 61; (5 mg) 63; (10 mg) 95; (15 mg) 82. The “Percentage of patients with TEAE leading to Study Discontinuation” value runs as follows: (2.5 mg) 1.9%; (5 mg) 6.4%; (10 mg) 5.6%; (15 mg) 4.1%. Also, the “Percentage of patients with severe TEAE” value (2.5 mg) is 7.7%, the “Percentage of patients with severe TEAE” value (5 mg) is given as 10.6%, the “Percentage of patients with severe TEAE” value (10 mg) worked out at 7.4% and the “Percentage of patients with severe TEAE” value (15 mg) worked out at 6.1%. The “Average AEs per patient, in patients who had AEs” value was determined as 3.2 (10 mg group) and 2.6 (15 mg group). Further, the “TEAEs compared with the 10 mg group” value (15 mg group) is “less TEAEs than patients in the 10 mg group”.
